Results published in article PMC4445002, “Efficient inhibition of tumor angiogenesis and growth by a synthetic peptide blocking S100A4-methionine aminopeptidase 2 interaction” (Molecular Therapy. Methods & Clinical Development, 2015).

Experiments:
[1] = test system: vinculin and integrin β1 focal adhesions in MSS31 cells; assay: Focal adhesion and F-actin immunofluorescence; assay type: cell-based, mouse; details: 5 μg/well, 18 hours
Method: Figure 7 Stimulation of the formation of focal contacts by the NBD peptide. MSS31 cells incubated with atelocollagen alone or the peptide/atelocollagen complexes were subjected to immunofluorescent staining and western blot analysis. (a) Formation of focal adhesions. The cells were immunostained with antivinculin or anti-integrin β1 antibody followed by Alexa Fluor 488-conjugated secondary antibody. F-actin was visualized with Atto 647N-Phalloidin. Nuclei were stained with DAPI. Scale bars: 50 μm. (b) Western blot analysis of focal adhesion proteins. Total cellular proteins were subjected to immunoblot analysis. (c) Relative expression level of vinculin (VCN), integrin β1 (ITGβ1) and p-FAK. The band intensity of VCN and ITGβ1 and p-FAK relative to that of β-actin and total FAK, respectively, was measured using ImageJ software and normalized to control cells.
MSS31 cells cultured in six-well plates were incubated with 5 μg/well of the NBD or the CBD peptide/atelocollagen complex or atelocollagen alone for 18 hours in Culture Slides (4 wells, BD Falcon) and were washed three times with DPBS and fixed for 10 minutes at 4 °C with 4% formaldehyde in DPBS. After permeabilizing with 0.5% Triton X-100 in DPBS for 4 minutes, the cells were treated with 3% bovine serum albumin in DPBS containing 0.1% glycine for 1 hour to block nonspecific binding sites. After washing with DPBS, the cells were incubated for 1 hour with primary antibodies, rinsed, and then stained with secondary antibodies. The primary antibodies used were polyclonal anti-S100A4, monoclonal anti-NMIIA antibody, monoclonal antivinculin antibody and polyclonal anti-integrin β1 antibody. The secondary antibody was Alexa Fluor 488-conjugated goat antirabbit IgG (Invitrogen) or Alexa Fluor 594-conjugated goat antimouse IgG (Invitrogen). F-Actin was visualized with Atto 647N-Phalloidin (Sigma-Aldrich). Nuclei were stained with 1 μg/ml DAPI. The slides were mounted with VECTASHIELD Mounting Medium (Vector Laboratories). The cells were observed under a confocal laser scanning microscope (Fluoview FV1000, Olympus, Japan).

[2] = test system: S100A4 in MSS31 cells; assay: S100A4 expression in peptide-loaded cells by western blot; assay type: cell-based, mouse; details: atelocollagen complex; Supplementary Figure S3
[3] = test system: MSS31 cells; assay: MSS31 cell growth; assay type: cell-based, mouse; details: atelocollagen complex; relative to control cells set to 100%; n = 4, P < 0.01
Method: (§1) Figure 8 Inhibition of cell cycle progression and cell growth by the NBD peptide. MSS31 cells were treated with atelocollagen alone or the NBD or the CBD peptide/atelocollagen complex in vitro. (a) Cell cycle progression. The cells were labeled with BrdU and then subjected to flow cytometry. (b) Cell growth. The values represent cell growth rate relative to that of control cells that is set to 100%. The NBD peptide inhibited the growth of MSS31 cells compared to the control cells (atelocollagen alone). Data represent the mean ± SD (n = 4), P < 0.01. TEXT PRINTED IN THE PICTURE: (a) NBD: S:13.2%; G1:70.7%; G2/M:9.6% | (a) CBD: S:32.1%; G1:55.4%; G2/M:8.9% | (a) peptide(−): S:36.7%; G1:49.6%; G2/M:9.7%

[4] = test system: PC-3M-Luc cells; assay: PC-3M-Luc cell growth in vitro; assay type: cell-based, human
Method: Caspase3/7 assays was performed with Apo-ONE Caspase-3/7 Assay
Reagent (Promega). No significant changes are observed.
F i g . […]
PC-3M-Luc cells were treated with atelocollagen alone or the NBD peptide/atelocollagen complex in vitro, and their growth rate was monitored.
The values represent cell growth rate relative to that of control cells that is […]
MSS31 cells were incubated with the peptide/atelocollagen complexes.
Isolation of total RNA and subsequent qRT-PCR analysis were carried out as described previously (30). The GAPDH gene was used as an internal control.
(a) Proangiogenic genes in NBD and CBD peptides-treated cells. (b)
Antiangiogenic genes in NBD and CBD peptides-treated cells.

[5] = test system: new blood vessel formation in BALB/c nude mice; assay: Directed in vivo angiogenesis assay (DIVAA) in nude mice; set-up: species or system mouse; details: angioreactors with Afs (bFGF, VEGF, heparin), peptide (1 mg/ml) with atelocollagen, s.c. implant, 15 days, n = 3; NBD P < 0.01
[6] = test system: MSS31 cells; assay: Capillary formation (tube formation) on Matrigel; assay type: cell-based, mouse
[7] = test system: MSS31 cells; assay: Cell cycle progression by BrdU flow cytometry; assay type: cell-based, mouse; details: 9 hours
Method: Since the overexpression of the SBD in MSS31 cells caused DNA synthesis inhibition, we examined the effect of the NBD peptide on cell cycle progression by flow cytometry after treating the cells with various concentrations of the synthetic peptides (0–1.0 μg/well) complexed with atelocollagen for 9 hours.
as §1
MSS31 cells treated with 1.0 μg/ml of the NBD peptide or the CBD peptide/atelocollagen were labeled with 10 μmol/l BrdU for 6 hours. Atelocollagen alone was used as a control. Flow cytometric analysis was carried out using the FITC BrdU Flow Kit (BD Biosciences Pharmigen, San Diego, CA) following the manufacturer’s instructions.

[8] = 0–1.0 μg/well with atelocollagen

Question: How did the “number of focal adhesions per cell” value ([1]; atelocollagen complex, vinculin and integrin β1 staining) turn out when “NBD: N-terminal 39 amino acid sequence of SBD, from Arg170 to Ileu208; corresponding to MetAP2 (170–208) (REAAEAHRQVRKYVMSWIKPGMTMIEICEKLEDCSRKLI)” was run?
Answer: greater number of vinculin- and integrin β1-containing focal adhesions per cell than the untreated and the CBD peptide-treated cells

Question: What about the “distribution of focal adhesions” value ([1]; immunofluorescence) of the same substance?
Answer: focal adhesions were distributed uniformly

Question: And the “formation of actin filaments” value ([1]; phalloidin staining)?
Answer: Formation of actin filaments was also prominent

Question: What about the “expression level of S100A4” value [2] of the same substance?
Answer: no apparent change in the expression level of S100A4

Question: And the “growth of MSS31 cells” value [3]?
Answer: significantly inhibited the growth of MSS31 cells

Question: And the “proliferation of PC-3 cells” value ([4]; discussion wording, p53-null cells)?
Answer: did not influence the proliferation of PC-3 cells

Question: And the “growth rate of PC-3M-Luc cells” value ([4]; in vitro, NBD peptide/atelocollagen complex, vs untreated, Supplementary Figure S6)?
Answer: comparable growth rate to that of untreated cells

Question: What about the “in vivo angiogenesis (DIVAA)” value [5] of the same substance?
Answer: potently suppressed the angiogenic factors-induced angiogenesis

Question: What about the “time at which inhibition of capillary formation is apparent” value ([6]; after peptide loading, Supplementary Figure S4) of the same substance?
Answer: ≤ 6 h

Question: And the “tube (capillary) formation” value ([6]; atelocollagen complex, 5 μg/well, Matrigel with 50 ng/ml HGF, 16 hours, n = 6, *P < 0.01)?
Answer: severely impaired tube formation

Question: What about the “effect on G2/M phase” value [7, 8] of the same substance?
Answer: not significantly affected

Question: What about the “effect on cell cycle progression” value [7, 8] of the same substance?
Answer: leads to cell cycle arrest in the G1/S phase

Question: And the “cells in G2/M phase” value ([7]; atelocollagen complex, BrdU flow cytometry, representative study, without peptide 9.7%)?
Answer: 9.6%

Question: And the “cells in S phase” value ([7]; atelocollagen complex, BrdU flow cytometry, representative study, without peptide 36.7%)?
Answer: 13.2%

Question: And the “cells in G1 phase” value ([7]; atelocollagen complex, BrdU flow cytometry, representative study, without peptide 49.6%)?
Answer: 70.7%
